From patent US6472348B1, “Pyridone derivatives and herbicides” (Kumiai Chemical Industry Co., Ltd., priority 1996, dated 2002)

Legend:
barnyardgrass (Ec) [1] = assay: Test Example 1: herbicidal effects by paddy field soil treatment; format: in vivo; conditions: 100 g of the active ingredient per 10 ares, 21st day after the application, index 0-5 of Table 47;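 further: grade of growth control; 5 = at least 90%; 4 = 70 to 90%; 3 = 50 to 70%; 2 = 30 to 50%; 1 = 10 to 30%; 0 = under 10%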
How it was run: (§1)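 Flooded paddy-soil pots (3 cm water) sown after puddling/leveling; treatment 100 g a.i./10 ares; greenhouse culture; herbicidal effect rated visually on a scoring scale at 21 d post-application.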

bulrush (Sc) = assay: as above; format: in vivo; conditions: 100 g of the active ingredient per 10 ares, 21st day after the application, index 0-5 of Table 47;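 further: grade of growth control; 5 = at least 90%; 4 = 70 to 90%; 3 = 50 to 70%; 2 = 30 to 50%; 1 = 10 to 30%; 0 = under 10%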
How it was run: as §1

monochoria (Mo) = assay: as above; format: in vivo; conditions: 100 g of the active ingredient per 10 ares, 21st day after the application, index 0-5 of Table 47;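 further: grade of growth control; 5 = at least 90%; 4 = 70 to 90%; 3 = 50 to 70%; 2 = 30 to 50%; 1 = 10 to 30%; 0 = under 10%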
How it was run: as §1

Digitaria ciliaris (Di) = assay: Test Example 2: herbicidal effects by upland field soil treatment; format: in vivo; conditions: 100 g of the active ingredient per 10 ares;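 further: grade of growth control; 5 = at least 90%; 4 = 70 to 90%; 3 = 50 to 70%; 2 = 30 to 50%; 1 = 10 to 30%; 0 = under 10%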
Source text: (§2) (Test on Herbicidal Effects by Upland Field Soil Treatment)

barnyardgrass (Ec) [2] = assay: as above; format: in vivo; conditions: 100 g of the active ingredient per 10 ares
Source text: as §2

[3] = tested on: common lambsquarters (Ch); assay: as above; format: in vivo; conditions: 100 g of the active ingredient per 10 ares
Source text: as §2

pale smartweed (Po) [4] = assay: as above; format: in vivo; conditions: 100 g of the active ingredient per 10 ares
Source text: as §2

rice flatsedge (Ci) [5] = assay: as above; format: in vivo; conditions: 100 g of the active ingredient per 10 ares
Source text: as §2

slender amaranth (Am) [6] = assay: as above; format: in vivo; conditions: 100 g of the active ingredient per 10 ares
Source text: as §2

Diaitaria ciliaris (Di) = assay: Test Example 3: herbicidal effects by upland field foliage treatment; format: in vivo; design: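 grade of growth control; 5 = at least 90%; 4 = 70 to 90%; 3 = 50 to 70%; 2 = 30 to 50%; 1 = 10 to 30%; 0 = under 10%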
How it was run: (§3)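 Scoring used a standard effect scale on the 14th day post-treatment, with plants held in a greenhouse throughout. Foliar application was made to weeds raised from seed in sand-filled pots for 2 weeks.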

barnyardgrass (Ec) [7] = assay: as above; format: in vivo; design: scale not given here
How it was run: as §3

[8] = tested on: common lambsquarters (Ch); assay: as above; format: in vivo; design: scale not given here
How it was run: as §3

pale smartweed (Po) [9] = assay: as above; format: in vivo; design: scale not given here
How it was run: as §3

rice flatsedge (Ci) [10] = assay: as above; format: in vivo; design: scale not given here
How it was run: as §3

slender amaranth (Am) [11] = assay: as above; format: in vivo; design: scale not given here
How it was run: as §3

wheat (Tr) = assay: Test Example 9: crop plant selectivity by upland field foliage treatment (wheat), phytotoxicity; conditions: dose 1.6 g ai/10a, 14th day after treatment
How it was run: (§4)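 Wheat and weeds sown in sand-filled pots, grown 2 weeks in a greenhouse, then foliage-treated. Herbicidal effect and crop phytotoxicity were scored 14 days after treatment against a rating scale.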

China jute (Ab) [12] = assay: Test Example 9: crop plant selectivity by upland field foliage treatment (wheat), herbicidal effects; format: in vivo; design: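 grade of growth control; 5 = at least 90%; 4 = 70 to 90%; 3 = 50 to 70%; 2 = 30 to 50%; 1 = 10 to 30%; 0 = under 10%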; conditions: dose 1.6 g ai/10a, 14th day after treatment
How it was run: as §4

[13] = tested on: common lambsquarters (Ch); assay: as above; format: in vivo; design: scale not given here; conditions: dose 1.6 g ai/10a, 14th day after treatment
How it was run: as §4

pale smartweed (Po) [14] = assay: as above; format: in vivo; design: scale not given here; conditions: dose 1.6 g ai/10a, 14th day after treatment
How it was run: as §4

slender amaranth (Am) [15] = assay: as above; format: in vivo; design: scale not given here; conditions: dose 1.6 g ai/10a, 14th day after treatment
How it was run: as §4

soybean (Gl) = assay: Test Example 10: crop plant selectivity by upland field foliage treatment (soybean), phytotoxicity; conditions: dose 1.6 g ai/10a, 14th day after treatment
Protocol: (§5) (Test on Crop Plant Selectivity by Upland Field Foliage Treatment)
(§6) In a plastic pot (surface area: 600 cm^2) filled with sand, soybean (Gl), pale smartweed (Po), slender amaranth (Am), common lambsquarters (Ch) and China jute (Ab) were sown and cultured in a green house for 2 weeks. […] The plants were then cultured in a green house, and the evaluation of the herbicidal effects and phytotoxicity was conducted on the 14th day after the treatment in accordance with the standards as identified in Table 47.

China jute (Ab) [16] = assay: Test Example 10: crop plant selectivity by upland field foliage treatment (soybean), herbicidal effects; format: in vivo; conditions: dose 1.6 g ai/10a, 14th day after treatment
Protocol: as §5, §6

[17] = tested on: common lambsquarters (Ch); assay: as above; format: in vivo; conditions: dose 1.6 g ai/10a, 14th day after treatment
Protocol: as §5, §6

pale smartweed (Po) [18] = assay: as above; format: in vivo; conditions: dose 1.6 g ai/10a, 14th day after treatment
Protocol: as §5, §6

slender amaranth (Am) [19] = assay: as above; format: in vivo; conditions: dose 1.6 g ai/10a, 14th day after treatment
Protocol: as §5, §6

corn (Ze) = assay: Test Example 11: crop plant selectivity by upland field foliage treatment (corn), phytotoxicity; conditions: upland field foliage treatment, dose 1.6 g ai/10a, 14th day after treatment
How it was run: (§7)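 Corn and the weed species were sown together in sand-filled pots and grown in a greenhouse for 2 weeks before foliar treatment. Herbicidal effect was scored on day 14 after treatment against a graded standard scale, with corn phytotoxicity scored alongside.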

China jute (Ab) [20] = assay: Test Example 11: crop plant selectivity by upland field foliage treatment (corn), herbicidal effects; format: in vivo; design: scale not given here; conditions: upland field foliage treatment (corn test), dose 1.6 g ai/10a, 14th day after treatment
How it was run: as §7

[21] = tested on: common lambsquarters (Ch); assay: as above; format: in vivo; design: scale not given here; conditions: upland field foliage treatment (corn test), dose 1.6 g ai/10a, 14th day after treatment
How it was run: as §7

pale smartweed (Po) [22] = assay: as above; format: in vivo; design: scale not given here; conditions: upland field foliage treatment (corn test), dose 1.6 g ai/10a, 14th day after treatment
How it was run: as §7

slender amaranth (Am) [23] = assay: as above; format: in vivo; design: scale not given here; conditions: upland field foliage treatment (corn test), dose 1.6 g ai/10a, 14th day after treatment
How it was run: as §7

[24] = evaluated on the 21st day after application
[25] = 100 g active ingredient per 10 ares, evaluated 14th day after treatment
[26] = 21st day after the application, index 0-5 of Table 47
[27] = 100 g of the active ingredient per 10 ares, evaluated on the 14th day after treatment

SMILES	Herbicidal effects Ec (barnyardgrass (Ec) [1])	Herbicidal effects Sc (bulrush (Sc))	Herbicidal effects Mo (monochoria (Mo))	Herbicidal effects Di (Digitaria ciliaris (Di); [24])	Herbicidal effects Ec (barnyardgrass (Ec) [2]; [24])	Phytotoxicity Tr (wheat (Tr))	Herbicidal effects Ab (China jute (Ab) [12])	Herbicidal effects Ch [13]	Herbicidal effects Po (pale smartweed (Po) [14])	Herbicidal effects Am (slender amaranth (Am) [15])	Phytotoxicity Gl (soybean (Gl))	Herbicidal effects Ab (China jute (Ab) [16])	Herbicidal effects Ch [17]	Herbicidal effects Po (pale smartweed (Po) [18])	Herbicidal effects Am (slender amaranth (Am) [19])	Phytotoxicity Ze (corn (Ze))	Herbicidal effects Ab (China jute (Ab) [20])	Herbicidal effects Ch [21]	Herbicidal effects Po (pale smartweed (Po) [22])	Herbicidal effects Am (slender amaranth (Am) [23])	also measured
CCCOCc1cc2c(-c3ccc(C(F)(F)F)n(C)c3=O)c(F)cc(Cl)c2o1 [Compound 4-32]	5	5	5	5	5	2	5	5	5	5	2	5	5	5	5	2	5	5	5	5	Herbicidal effects Ch [3, 24]: 5; Herbicidal effects Po (pale smartweed (Po) [4]; [24]): 5; Herbicidal effects Ci (rice flatsedge (Ci) [5]; [24]): 5; Herbicidal effects Am (slender amaranth (Am) [6]; [24]): 5; Herbicidal effects Di (Diaitaria ciliaris (Di); [25]): 5; Herbicidal effects Ec (barnyardgrass (Ec) [7]; [25]): 5; Herbicidal effects Ch [8, 25]: 5; Herbicidal effects Po (pale smartweed (Po) [9]; [25]): 5; Herbicidal effects Ci (rice flatsedge (Ci) [10]; [25]): 5; Herbicidal effects Am (slender amaranth (Am) [11]; [25]): 5
Cn1c(C(F)(F)F)ccc(-c2cc(C(=O)OC3CCCC3)c(Cl)cc2F)c1=O [Compound 1-184]	5	5	5	5	5	2	5	5	5	5	2	5	5	5	5	1	5	5	5	5	Herbicidal effects Ch [3, 24]: 5; Herbicidal effects Po (pale smartweed (Po) [4]; [24]): 5; Herbicidal effects Ci (rice flatsedge (Ci) [5]; [24]): 5; Herbicidal effects Am (slender amaranth (Am) [6]; [24]): 5; Herbicidal effects Di (Diaitaria ciliaris (Di); [25]): 5; Herbicidal effects Ec (barnyardgrass (Ec) [7]; [25]): 5; Herbicidal effects Ch [8, 25]: 5; Herbicidal effects Po (pale smartweed (Po) [9]; [25]): 5; Herbicidal effects Ci (rice flatsedge (Ci) [10]; [25]): 5; Herbicidal effects Am (slender amaranth (Am) [11]; [25]): 5
CCC(=O)c1cc(-c2ccc(C(F)(F)F)n(C)c2=O)c(F)cc1Cl [1-69]	5	5	5			1	5	5	5	5	2	5	5	5	5	2	5	5	5	5	Herbicidal effects Di (Digitaria ciliaris (Di); [26]): 5; Herbicidal effects Ec (barnyardgrass (Ec) [2]; [26]): 5; Herbicidal effects Ch [3, 26]: 5; Herbicidal effects Po (pale smartweed (Po) [4]; [26]): 5; Herbicidal effects Ci (rice flatsedge (Ci) [5]; [26]): 5; Herbicidal effects Am (slender amaranth (Am) [6]; [26]): 5; Herbicidal effects Di (Diaitaria ciliaris (Di); [27]): 5; Herbicidal effects Ec (barnyardgrass (Ec) [7]; [27]): 5; Herbicidal effects Ch [8, 27]: 5; Herbicidal effects Po (pale smartweed (Po) [9]; [27]): 5; Herbicidal effects Ci (rice flatsedge (Ci) [10]; [27]): 5; Herbicidal effects Am (slender amaranth (Am) [11]; [27]): 5
